Reference: patent US9109155B2, “Heterocycle-functionalized luminogens exhibiting aggregation-induced emission” (THE HONG KONG UNIVERSITY OF SCIENCE AND TECHNOLOGY, priority 2013, dated 2015)
Entries after “also recorded” stand apart in the source; their conditions may differ. Blank lines part the entries; values can stand above or below the compound they belong to.

Key:
[1] = Metabolic viability of MCF-7 cancer cells after incubation with probe; assay type: cell-based; details: human, 5, 10 and 20 μM for 12, 24 and 48 h, read-out: cell viability
From the text: This is indicative of the low cytotoxicity of the Ac-DEVD-PyTPE probe.

caspase-7 = biological target: T1, caspase-7 (Homo sapiens, UniProt P55210); assay: Ac-DEVD-PyTPE fluorescence turn-on assay with caspase-7; assay type: biochemical; details: caspase-7 vs pepsin, trypsin, papain, lysozyme; protein 20 μg mL^−1; λex 405 nm, λem 610 nm
T1 sequence (P55210 24-198 limits assumed): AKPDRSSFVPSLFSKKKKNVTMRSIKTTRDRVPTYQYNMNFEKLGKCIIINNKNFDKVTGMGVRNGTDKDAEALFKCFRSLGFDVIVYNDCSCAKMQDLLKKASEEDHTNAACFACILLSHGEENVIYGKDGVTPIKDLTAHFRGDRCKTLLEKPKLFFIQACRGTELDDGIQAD
T1 sequence (P55210 207-303 limits assumed): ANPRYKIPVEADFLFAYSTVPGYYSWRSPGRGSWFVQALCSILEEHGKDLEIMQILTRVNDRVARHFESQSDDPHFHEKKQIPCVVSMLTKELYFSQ
From the text: (§1) Inset: photographs taken under UV illumination. λex=405 nm; λem=610 nm.
(§2) As shown, caspase-3 and caspase-7 display respectively about 43- and 36-fold higher changes in (I−I0)/I0 than the other four enzymes.

caspase-3 = biological target: T2, caspase-3 (Homo sapiens, UniProt P42574); assay: Ac-DEVD-PyTPE fluorescence turn-on assay with caspase-3 in PIPES buffer; assay type: biochemical
T2 sequence (P42574 29-175 limits assumed): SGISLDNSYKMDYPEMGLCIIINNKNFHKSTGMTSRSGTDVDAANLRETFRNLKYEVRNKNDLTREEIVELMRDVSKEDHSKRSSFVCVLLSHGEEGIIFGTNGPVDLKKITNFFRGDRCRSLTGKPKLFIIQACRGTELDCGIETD
T2 sequence (P42574 176-277 limits assumed): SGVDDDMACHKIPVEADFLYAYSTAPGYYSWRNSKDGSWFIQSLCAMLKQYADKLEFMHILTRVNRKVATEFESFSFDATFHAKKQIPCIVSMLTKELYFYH
Protocol: [caspase-3]=5 μg mL^−1, [Ac-DEVD-PyTPE]=10 μM.
as §1
Particles with an average diameter of 92 nm formed in addition to the increase of fluorescence in the solution (FIG. 43a). […] The caspase-3/7 catalyzed hydrolysis of Ac-DEVD-PyTPE is shown in the reaction scheme below.
In the absence of caspase-3, nearly no change in fluorescence is observed, confirming that Ac-DEVD-PyTPE is specifically recognized and cleaved by caspase-3.
as §2

subcutaneous C6 tumor = assay: In vivo and ex vivo fluorescence imaging of apoptosis in C6 tumor-bearing mice
Protocol: Only apoptotic tumors were clearly visualized.
Subcutaneous C6 tumor-bearing mice with and without intravenous injection of STS were imaged for 30 min using an IVIS spectrum imaging system. […] In contrast, the fluorescence signals from the tumor-bearing animals without treatment of STS and normal tissues are very weak. […] Additionally, the fluorescence changes in tumoral and normal tissues as a function of time for each experiment are shown in FIG. 50b. A 3-fold fluorescence enhancement of the apoptotic tumoral tissues relative to normal tissues is observed as early as 5 min after injection of Ac-DEVD-PyTPE, but only a slight fluorescence increase is observed over 15 min.
FIG. 50c show IVIS spectrum analysis of apoptotic and non-apoptotic tumors that were excised immediately after in vivo imaging.

[2] = test system: caspase-3 activity in MCF-7 cells; assay: CLSM imaging of caspase-3 activity / apoptosis in MCF-7 cells; assay type: cell-based
Protocol: FIGS. 46a-46c show normal MCF-7 cells treated with Ac-DEVD-PyTPE (5 μM, 1% DMSO) for 2 h.
FIGS. 46d-46f show apoptotic MCF-7 cells treated with Ac-DEVD-PyTPE (5 μM, 1% DMSO) and caspase-3 antibody. STS (3 μM) was used to induce cell apoptosis. Red=probe fluorescence; Green=immunofluorescence signal generated from anti-caspase-3 primary antibody and a FITC labeled secondary antibody.
All images were acquired in the same way.
Additionally, apoptotic MCF-7 cells were treated with both Ac-DEVD-PyTPE and commercial Annexin V-Alexa Fluor.

HeLa cells = assay: Photobleaching under continuous laser excitation in stained HeLa cells; assay type: cell-based; details: continuous excitation 180 s, 0.6 mW; 405 nm for TPEPy-PF6, 588 nm for MitoTracker Red
C6 tumor = assay: In vivo screening of apoptosis inducing agents in C6 tumor-bearing mice; details: treated overnight, probe injected into tumor, 15 min; compared with DMSO, cisplatin, sodium ascorbate
Protocol: C6 tumor-bearing mice were treated with several compounds, namely DMSO, STS, cisplatin (CIS), and sodium ascorbate (Na asb), overnight, and Ac-DEVD-PyTPE was subsequently injected into the tumor directly. After 15 min incubation, the mice were imaged using an IVIS spectrum imaging system.

MCF-7 cells = assay: In situ screening of apoptosis inducers in MCF-7 cells with Ac-DEVD-PyTPE; assay type: cell-based; details: 3 μM in DMSO, 2 h; compared with sodium ascorbate and cisplatin
Protocol: [Ac-DEVD-PyTPE]=3 μM. All images were acquired in the same way.
Three known apoptosis inducers, sodium ascorbate, cisplatin and STS, were used to treat MCF-7 cells. After the cells were incubated with Ac-DEVD-PyTPE for 2 h, each compound (3 μM in DMSO) was added into the chamber for an additional 2 h incubation. The apoptosis-inducing capabilities of these agents were evaluated by monitoring the cell fluorescence increase with a confocal microscopy.

[3] = Fluorescent sensing of Hg2+ in aqueous buffer and in solid film
Protocol: I0=the emission intensity at 640 nm in absence of Hg^2+. Inset: photographs of TPEBe-I in aqueous buffer with [Hg^2+] of 0 and 2.0 mM taken under 365 nm UV illumination. Solution concentration: 20 μM; excitation wavelength: 480 nm.
Black bars represent the addition of different metal ion (2 mM) to solution of the TPEBe-I. Red bars represent the subsequent addition of 2 mM Hg^2+ to the solution. λex=480 nm. λem=640 nm.
Accordingly, in one embodiment, the present subject matter relates to the use of Hg^2+ to bind to iodine ions in TPEBe-I in order to restore the emission of the cationic luminogen. […] In addition, the spectrum slightly red-shifted with increasing concentration of Hg^2+. […] When the concentration of Hg^2+ is 2.0 mM, the emission intensity of TPEBe-I is enhanced 80-fold. Moreover, the emission color also changes from dark into bright red under 365 nm UV illumination. Accordingly, another embodiment of the present subject matter relates to the use of TPEBe-I luminogens as an “off-on” sensor for Hg^2+ in aqueous solution.
In addition, the present subject matter relates to using the TPEBe-I luminogen as a fluorescent sensor for Hg^2+.
This is likely due to protons combining with iodine ions, leading to a faint increase in emission. In contrast, under basic conditions (pH≧7), TPEBe-I in the absence of Hg^2+ is weakly emissive due to the quenching effect of the iodine ions. […] The emission intensity decreases at a pH greater than 8, but is still higher than the emission intensity of TPEBe-I in the absence of Hg^2+. […] The lower emission intensity of TPEBe-I under more basic conditions is attributed to the formation of Hg(OH)2, thereby reducing the amount of free Hg^2+. In addition, the hydroxyl group (OH) in basic conditions can destroy the structure of TPEBe-I, resulting in inactivation of its sensing ability.
In another embodiment, a solid-state fluorescent probe for the detection of Hg^2+ was developed using the TPEBe-I luminogen. […] As shown, the spots of film polluted by the aqueous solution containing Hg^2+ changed to a red color with varying degrees while the untreated surrounding areas show the initial dark color. This illustrates that the solid-state film of TPEBe-I has a very sensitive response to Hg^2+ in a pure aqueous solution. Therefore, one embodiment of the present subject matter relates to the use a TPEBe-I solid-state fluorescent probe for detecting and tracking the amount of Hg^2+ in an aqueous solution. In one embodiment, the detection amount can reach 1 μM ([…]).

Solubility = details: for solubility in common organic solvents: THF, toluene, DCM, chloroform
[4] = Fluorescent sensing of ATP in aqueous solution with 1% DMSO
Protocol: I0=PL intensity at 620 nm in absence of ATP. Inset in B: plot of (I−I0)/I0 value versus concentration of ATP from 0 to 20 μM.
I0=photoluminescence intensity at 620 nm in absence of nucleotide. Inset: Photographs of TPBBe-I in aqueous solution with 1% DMSO with various nucleotides (600 μM) taken under 365 nm UV illumination.
When the concentration of ATP is 600 μM, the emission intensity of TPEBe-I increases 20-fold. Moreover, the emission color also changes from dark into bright red under 365 nm UV illumination (FIG. 53b). […] Obviously, the value of (I−I0)/I0 has a linear relationship with ATP from 0 to 20 μM.
The fluorescence response of TPEBe-I was carried out using ATP, ADP and AMP. […] Accordingly, one embodiment relates to the use of TPEBe-I as a highly sensitive and selective fluorescent sensor for ATP.

[5] = test system: mitochondria of HeLa cells; assay: Living HeLa cell staining and co-staining with MitoTracker Red; assay type: cell-based; details: 15 min
Protocol: In a further embodiment, the present subject matter is directed to the use of the TPEPy-PF6 luminogen as a fluorescent stain for living cell imaging. Nanoaggregates of TPEPy-PF6 were prepared in minimum essential medium/DMSO mixtures and the HeLa cells were imaged using a standard cell-staining protocol. The living cells were incubated with TPEPy-PF6 (5 μM) for 15 min and then washed three times with phosphate buffered saline solution.
Living cells were incubated with both mitochondria-targeted dye MitoTracker Red (100 nM) and TPEPy-PF6 (5 μM) for 15 min at 37° C. by the above procedure. […] Therefore, one embodiment of the present subject matter relates to the use of the TPEPy-PF6 luminogen to exclusively stain the mitochondria of living cells.

[6] = excised immediately after in vivo imaging

fold higher change in (I−I0)/I0 than the other four enzymes (caspase-7): ~36 fold
fluorescence of the probe treated with caspase-3 (caspase-3; PIPES buffer pH 7.2, caspase-3 5 μg mL^−1, probe 10 μM): strong fluorescence signals
fold higher change in (I−I0)/I0 than the other four enzymes (caspase-3; caspase-3 vs pepsin, trypsin, papain, lysozyme, protein 20 μg mL^−1, λex 405 nm, λem 610 nm): about 43 fold
Structure (SMILES): CC(=O)N[C@@H](CC(=O)O)C(=O)N[C@@H](CCC(=O)O)C(=O)N[C@H](C(=O)N[C@@H](CC(=O)O)C(=O)N[C@@H](Cc1cn(CCCC[n+]2ccc(/C=C/c3ccc(C(=C(c4ccccc4)c4ccccc4)c4ccccc4)cc3)cc2)nn1)C(N)=O)C(C)C [Ac-DEVD-PyTPE]
viability [1]: ~100%
fluorescence enhancement of apoptotic tumoral tissues relative to normal tissues (subcutaneous C6 tumor; STS pretreatment, 5 min after intratumoral injection of probe): 3 fold
fluorescence of excised tumor/(+)STS tissues (subcutaneous C6 tumor; [6]): high fluorescence signal
fluorescence of excised tumor/(−)STS tissues (subcutaneous C6 tumor; [6]): almost no fluorescence
probe fluorescence in normal un-induced cells ([2]; 5 μM, 1% DMSO, 2 h): extremely low fluorescence signal
probe fluorescence in STS-induced apoptotic cells ([2]; probe 5 μM, STS 3 μM): strong fluorescence signals

solubility in common organic solvents (Solubility): soluble
solubility in water (Solubility): insoluble
Structure (SMILES): CC[n+]1c(/C=C/c2ccc(C(=C(c3ccccc3)c3ccccc3)c3ccccc3)cc2)sc2ccccc21 [TPEBe-I]
emission intensity enhancement ([3]; Hg^2+ 2.0 mM, luminogen 20 μM, pH 7.4 HEPES, 1% DMSO, λex 480 nm): 80 fold
emission change with other metal ions ([3]; Zn, Ni, Co, Cd, Cu, Mn, Ca, Fe, Mg, Ag, Pd ions 2.0 mM): negligible changes
detection amount of Hg^2+ ([3]; solid-state film, aqueous Hg^2+ 5 μL): 1 µM
emission intensity increase ([4]; ATP 600 μM, luminogen 20 μM, λex 480 nm): 20 fold
emission change with ADP and AMP ([4]; other nucleotides, aqueous solution with 1% DMSO): negligible changes

luminescence intensity remaining relative to initial value (HeLa cells): ~70%
solubility in water (Solubility): not soluble
Structure (SMILES): C[n+]1ccc(/C=C/c2ccc(C(=C(c3ccccc3)c3ccccc3)c3ccccc3)cc2)cc1 [TPEPy-PF6]
mitochondria staining: position, shape and amounts compared with MitoTracker Red ([5]; 5 μM with MitoTracker Red 100 nM, 37° C.): the same as for MitoTracker Red
toxicity to living cells (cell morphology) ([5]; 5 μM): low toxicity

Second part, the compound before the results:

Structure (SMILES): COC[C@@H]1CCCN1S(=O)(=O)c1ccc2c(c1)C(=O)C(=O)N2 [MPS, 5-[(S)-(+)-2-(methoxymethyl)pyrrolidino]sulfonylisatin, reference compound]
inhibition of caspase-3 cleavage of Ac-DEVD-PyTPE (fluorescence) (caspase-3; pre-treatment with inhibitor 10 μM, PIPES buffer): Most of the fluorescence was readily competed away
probe fluorescence in STS-induced cells pre-treated with inhibitor ([2]; inhibitor 10 μM before incubation with Ac-DEVD-PyTPE): greatly reduced

Structure (SMILES): ClCc1ccc(C2=c3cc4c5c(c3Oc3c2cc2c6c3CCCN6CCC2)CCC[N+]=5CCC4)cc1.[Cl-] [MitoTracker Red, reference compound]
luminescence intensity remaining relative to initial value (HeLa cells): about 20%

Structure (SMILES): CN[C@@H]1C[C@H]2O[C@@](C)([C@@H]1OC)n1c3ccccc3c3c4c(c5c6ccccc6n2c5c31)C(=O)NC4 [STS, staurosporine]
efficacy of apoptosis inducing agent (tumor fluorescence) (C6 tumor): strongest fluorescence
apoptosis-inducing capability (cell fluorescence increase) (MCF-7 cells): strongest fluorescence enhancement

Structure (SMILES): CC[n+]1c(/C=C/c2ccc(C(=C(c3ccccc3)c3ccccc3)c3ccccc3)cc2)sc2ccccc21 [TPEBe-ClO4]
emission intensity upon addition of Hg^2+ ([3]; Hg^2+ 0-2.0 mM, pH 7.4 HEPES, 1% DMSO): also increased
solubility in common organic solvents (Solubility): soluble
solubility in water (Solubility): insoluble

Structure (SMILES): CC[n+]1c(/C=C/c2ccc(C(=C(c3ccccc3)c3ccccc3)c3ccccc3)cc2)sc2ccccc21 [TPEBe-PF6]
solubility in common organic solvents (Solubility): soluble
solubility in water (Solubility): insoluble; also recorded: not soluble
